From ChEMBL document CHEMBL5729177, “GLS1 inhibitors for treating disease” (2022)

Target: T1, Glutaminase kidney isoform, mitochondrial (Homo sapiens, UniProt O94925)
T1 sequence (O94925 whole entry): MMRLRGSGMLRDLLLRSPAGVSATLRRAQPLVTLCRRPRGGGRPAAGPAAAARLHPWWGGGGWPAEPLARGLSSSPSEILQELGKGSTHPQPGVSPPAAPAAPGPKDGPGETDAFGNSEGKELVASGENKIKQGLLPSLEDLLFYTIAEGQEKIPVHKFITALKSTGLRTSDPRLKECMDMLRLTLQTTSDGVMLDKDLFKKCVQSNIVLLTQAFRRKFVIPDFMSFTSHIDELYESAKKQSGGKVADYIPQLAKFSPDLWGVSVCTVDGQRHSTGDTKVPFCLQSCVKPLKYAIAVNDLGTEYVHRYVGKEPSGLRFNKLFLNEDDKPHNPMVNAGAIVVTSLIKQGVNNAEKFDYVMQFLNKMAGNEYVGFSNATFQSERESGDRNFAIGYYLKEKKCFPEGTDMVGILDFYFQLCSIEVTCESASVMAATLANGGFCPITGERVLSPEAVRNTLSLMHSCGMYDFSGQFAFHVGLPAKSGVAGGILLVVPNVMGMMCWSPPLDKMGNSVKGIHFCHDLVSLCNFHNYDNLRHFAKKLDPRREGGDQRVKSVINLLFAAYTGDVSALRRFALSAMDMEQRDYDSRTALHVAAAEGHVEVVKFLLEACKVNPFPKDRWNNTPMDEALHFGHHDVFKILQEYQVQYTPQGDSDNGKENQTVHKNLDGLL
Assay: Enzymatic Activity Assay: The inhibition of purified recombinant human GAC by varying concentrations of inhibitors is assessed via a dual-coupled enzymatic assay. The glutamate produced by the glutaminase reaction is used by glutamate oxidase to produce α-ketoglutarate, ammonia, and hydrogen peroxide, with this hydrogen peroxide subsequently being used by horseradish peroxidase to produce resorufin in the presence of Amplex UltraRed. The assay buffer consisted of 50 mM Hepes (pH 7.4), 0.25 mM EDTA and 0.1 mM Triton X-100. GAC was incubated with potassium phosphate (10 minutes at room temperature) prior to incubation with inhibitor (10 minutes at room temperature). The final reaction conditions were as follows: 2 nM GAC, 50 mM potassium phosphate, 100 mU/mL glutamate oxidase (Sigma), 1 mM glutamine (Sigma), 100 mU/mL horseradish peroxidase (Sigma), 75 μM Amplex UltraRed (Life Technologies), and 1% (v/v) DMSO. The production of resorufin was monitored on a Perkin Elmer Envision plate reader (excitation 530 nm, emission 590 nm) either in a kinetics or endpoint mode (at 20 minutes). IC50 values were calculated using a four-parameter logistic curve fit.

O=C(NCc1cc(OC(F)(F)F)ccc1F)c1cn(CCC(F)Cn2cc(C(=O)NCc3ccccn3)nn2)nn1 (stereo unspecified)
IC50: < 100 nM
